Test results taken from ChEMBL document CHEMBL4433197, “Nuclear Factor Erythroid 2-Related Factor 2 (Nrf2) Inhibition: An Emerging Strategy in Cancer Therapy” (J Med Chem, 2019).

Biological target: T1, Nuclear factor erythroid 2-related factor 2 (Mus musculus, UniProt Q60795)
T1 sequence (Q60795 whole entry): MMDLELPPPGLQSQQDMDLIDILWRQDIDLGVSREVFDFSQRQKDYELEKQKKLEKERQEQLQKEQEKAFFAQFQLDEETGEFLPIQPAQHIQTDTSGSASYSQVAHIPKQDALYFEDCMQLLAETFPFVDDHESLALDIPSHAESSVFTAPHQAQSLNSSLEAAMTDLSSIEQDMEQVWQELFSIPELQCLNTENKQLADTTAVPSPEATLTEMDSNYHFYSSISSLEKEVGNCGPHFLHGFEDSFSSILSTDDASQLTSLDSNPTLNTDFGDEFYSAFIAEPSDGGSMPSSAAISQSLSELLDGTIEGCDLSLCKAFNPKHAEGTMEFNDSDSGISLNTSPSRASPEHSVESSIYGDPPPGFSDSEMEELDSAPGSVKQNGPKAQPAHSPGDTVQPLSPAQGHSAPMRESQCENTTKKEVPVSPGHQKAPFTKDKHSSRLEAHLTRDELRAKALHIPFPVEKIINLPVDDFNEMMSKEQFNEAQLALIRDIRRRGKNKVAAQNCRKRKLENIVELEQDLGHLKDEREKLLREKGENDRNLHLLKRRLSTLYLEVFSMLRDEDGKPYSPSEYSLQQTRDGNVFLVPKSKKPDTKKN
Assay: Inhibition of Nrf2 in mouse MYC-3T3-ARELUC cells harboring a stably integrated ARE by firefly luciferase reporter gene assay
Type: cell-based

Fc1ccc(-c2csc3ncnc(NCc4ccc5c(c4)OCO5)c23)cc1
EC50: 650 nM
